ChEMBL document CHEMBL1201862, “PubChem BioAssay data set” (2004)
“And” between values parts separate entries of the source, which are not always exact repeats. Equal values may be shown once.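 Five compound concentrations were applied to cells in 96-well plates for 48 hours; endpoints were derived by simple linear interpolation of the resulting dose-response curve. GI50 = concentration required for 50% inhibition of growth.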 The source made the active and inactive calls. Rule as the data show it: active = GI50 up to about 1.1 µM and inactive = higher.

Experiments:
Test in all cases: DTP human tumour cell line panel, 48 h
OVCAR-3 = tested on: OVCAR-3
UACC-62 = tested on: UACC-62
SNB-75 = tested on: SNB-75
SK-MEL-5 = tested on: SK-MEL-5
NCI-H460 = tested on: NCI-H460
SF-295 = tested on: SF-295
Malme-3M = tested on: Malme-3M
OVCAR-4 = tested on: OVCAR-4
NCI-H23 = tested on: NCI-H23
TK-10 = tested on: TK-10
HT-29 = tested on: HT-29
SK-MEL-2 = tested on: SK-MEL-2
SF-268 = tested on: SF-268
CAKI-1 = tested on: CAKI-1
SK-MEL-28 = tested on: SK-MEL-28
SR = tested on: SR

Measured: GI50

COC(=O)CSc1ccccc1
inactive: OVCAR-3 > 100 µM | UACC-62 > 100 µM | SNB-75 > 100 µM | SK-MEL-5 > 100 µM | NCI-H460 > 100 µM | SF-295 > 100 µM | Malme-3M 25.4 µM | OVCAR-4 > 100 µM | NCI-H23 > 100 µM | TK-10 > 100 µM | HT-29 > 100 µM | SK-MEL-2 11.5 µM | SF-268 > 100 µM | CAKI-1 > 100 µM

O=C(O)c1[nH]c(C(=O)O)c(CC(F)(F)C(F)(F)C(F)(F)F)c1CC(F)(F)C(F)(F)C(F)(F)F
inactive: OVCAR-3 > 100 µM | UACC-62 > 100 µM | SNB-75 > 100 µM | SK-MEL-5 > 100 µM | NCI-H460 > 100 µM | SF-295 > 100 µM | SK-MEL-28 > 100 µM | Malme-3M > 100 µM | OVCAR-4 > 100 µM | NCI-H23 > 100 µM | TK-10 > 100 µM | HT-29 > 100 µM | SF-268 > 100 µM | CAKI-1 > 100 µM

COC1/C(=C\C(=O)OC(C)(C)C)c2ccccc2N1C(C)=O (stereo not drawn)
inactive: OVCAR-3 > 100 µM | UACC-62 > 100 µM | SNB-75 > 100 µM | NCI-H460 > 100 µM | SF-295 > 100 µM | SK-MEL-28 > 100 µM | SR 48 µM | OVCAR-4 > 100 µM | NCI-H23 > 100 µM | HT-29 > 100 µM | SK-MEL-2 > 100 µM | CAKI-1 > 100 µM

CNC(=O)NCCCC(NC(C)=O)C(=O)NCc1ccccc1 (stereo not drawn)
inactive: OVCAR-3 > 100 µM | UACC-62 > 100 µM | SNB-75 42.2 µM | SK-MEL-5 > 100 µM | NCI-H460 > 100 µM | SF-295 > 100 µM | SK-MEL-28 > 100 µM | Malme-3M > 100 µM | OVCAR-4 > 100 µM | NCI-H23 > 100 µM | TK-10 > 100 µM | HT-29 > 100 µM | SK-MEL-2 > 100 µM | SF-268 > 100 µM | CAKI-1 > 100 µM

O=C1/C(=C\c2ccccc2)C2/C(=C\c3ccccc3)C(=O)/C(=C\c3ccccc3)C2/C1=C\c1ccccc1 (stereo not drawn)
inactive: OVCAR-3 1.73 µM | UACC-62 1.9 µM | SNB-75 17.3 µM | SK-MEL-5 1.9 µM | NCI-H460 1.9 µM | SF-295 2.07 µM | SK-MEL-28 2.18 µM | Malme-3M 1.77 µM | OVCAR-4 1.21 µM | NCI-H23 1.62 µM | TK-10 3.87 µM | HT-29 1.34 µM | SK-MEL-2 1.81 µM | SF-268 2.58 µM | CAKI-1 2.67 µM

O=C(c1ccccc1)C1OC12C(=O)Nc1ccccc12 (stereo not drawn)
inactive: OVCAR-3 34.8 µM | UACC-62 40.7 µM | SNB-75 15.2 µM | SK-MEL-5 11.3 µM | NCI-H460 41.7 µM | SF-295 27 µM | SK-MEL-28 29.6 µM | Malme-3M 29.6 µM | OVCAR-4 47.8 µM | NCI-H23 21.5 µM | TK-10 40.3 µM | HT-29 19.7 µM | SK-MEL-2 44.2 µM | SF-268 59.8 µM | CAKI-1 20.8 µM

Nc1nnc2c(-c3ccccc3)n[nH]c2n1
inactive: OVCAR-3 > 100 µM | NCI-H460 26.3 µM | SF-295 67 µM | SK-MEL-28 91.6 µM | SR 27.4 µM | OVCAR-4 > 100 µM | NCI-H23 68.7 µM | TK-10 23 µM | HT-29 24.4 µM | SK-MEL-2 90.2 µM | SF-268 17.1 µM | CAKI-1 17 µM

CSc1nnc2n1-c1ccccc1SCC2
inactive: OVCAR-3 > 100 µM | UACC-62 > 100 µM | SNB-75 > 100 µM | NCI-H460 > 100 µM | SF-295 > 100 µM | SK-MEL-28 > 100 µM | Malme-3M > 100 µM | SR > 100 µM | OVCAR-4 > 100 µM | NCI-H23 > 100 µM | TK-10 > 100 µM | HT-29 > 100 µM | SK-MEL-2 > 100 µM | SF-268 > 100 µM

CCCCCCCCCCCCCP(=O)(O)OCC
inactive: OVCAR-3 > 100 µM | UACC-62 > 100 µM | SNB-75 > 100 µM | SK-MEL-5 > 100 µM | NCI-H460 > 100 µM | SF-295 > 100 µM | SK-MEL-28 > 100 µM | Malme-3M > 100 µM | OVCAR-4 > 100 µM | NCI-H23 > 100 µM | TK-10 > 100 µM | HT-29 > 100 µM | SK-MEL-2 > 100 µM | SF-268 > 100 µM

CC(C)OP(=S)(NC(=S)c1ccccc1)OC(C)C
inactive: OVCAR-3 > 100 µM | UACC-62 > 100 µM | SNB-75 > 100 µM | SK-MEL-5 42.9 µM | NCI-H460 59 µM | SF-295 76.2 µM | SK-MEL-28 > 100 µM | Malme-3M > 100 µM | OVCAR-4 > 100 µM | NCI-H23 > 100 µM | TK-10 > 100 µM | HT-29 > 100 µM | SK-MEL-2 > 100 µM | SF-268 > 100 µM | CAKI-1 > 100 µM

O=C1C=CC2(O)OCC3C=C4O[C@@H]5OC6(CCCCC6)O[C@@H]5C4[C@@H]2[C@@H]13 (stereo partly drawn)
inactive: OVCAR-3 24.2 µM | UACC-62 32.7 µM | SNB-75 35.6 µM | SK-MEL-5 43.5 µM | NCI-H460 > 100 µM | SF-295 > 100 µM | SK-MEL-28 20 µM | Malme-3M 30.3 µM | OVCAR-4 22.6 µM | NCI-H23 23.8 µM | TK-10 20.7 µM | HT-29 22.3 µM | SK-MEL-2 82 µM | SF-268 33.2 µM | CAKI-1 22.7 µM

NCCCC1NC(=O)/C(=C(O)/C=C/C2CCC[C@@H]2CC2SCCS2)C1=O (stereo partly drawn)
inactive: OVCAR-3 > 100 µM | UACC-62 > 100 µM | SNB-75 > 100 µM | SK-MEL-5 > 100 µM | NCI-H460 > 100 µM | SF-295 > 100 µM | SK-MEL-28 > 100 µM | Malme-3M > 100 µM | SR 58.5 µM | OVCAR-4 > 100 µM | NCI-H23 > 100 µM | TK-10 > 100 µM | HT-29 > 100 µM | SK-MEL-2 > 100 µM | SF-268 > 100 µM

COC(=O)CC(C(C(C)=O)C(=O)OCc1ccccc1)N1C(=O)OC(c2ccccc2)C1c1ccccc1 (stereo not drawn)
inactive: OVCAR-3 29.6 µM and 17.4 µM | UACC-62 41.1 µM and 45.4 µM | SK-MEL-5 60.1 µM | NCI-H460 > 100 µM | SF-295 19.5 µM and 30.8 µM | SK-MEL-28 65.9 µM and 97.7 µM | Malme-3M > 100 µM | SR 42.7 µM and 42.5 µM | NCI-H23 46.9 µM and 55.3 µM | TK-10 > 100 µM | HT-29 > 100 µM | SK-MEL-2 61.5 µM and 83.4 µM | SF-268 40.7 µM and 54.5 µM | CAKI-1 81.1 µM and 83.4 µM

Cc1nc(-c2nc(C)c(C(=O)NNC(=O)C[n+]3ccccc3)s2)sc1C(=O)NNC(=O)C[n+]1ccccc1
inactive: OVCAR-3 90.2 µM | UACC-62 > 100 µM | SNB-75 25.5 µM | SK-MEL-5 45.7 µM | NCI-H460 > 100 µM | SF-295 65.6 µM | SK-MEL-28 > 100 µM | Malme-3M > 100 µM | NCI-H23 45.7 µM | TK-10 > 100 µM | HT-29 > 100 µM | SK-MEL-2 > 100 µM | SF-268 39.7 µM | CAKI-1 18.6 µM
